{"source": "ChEMBL document CHEMBL5465560", "about": "“Selectivity Literature for EUbOPEN Chemogenomic Library” (2024)", "key": {"[1]": {"target": "T1, NUAK family SNF1-like kinase 1 (Homo sapiens) (UniProt O60285)", "T1 sequence (whole entry)": "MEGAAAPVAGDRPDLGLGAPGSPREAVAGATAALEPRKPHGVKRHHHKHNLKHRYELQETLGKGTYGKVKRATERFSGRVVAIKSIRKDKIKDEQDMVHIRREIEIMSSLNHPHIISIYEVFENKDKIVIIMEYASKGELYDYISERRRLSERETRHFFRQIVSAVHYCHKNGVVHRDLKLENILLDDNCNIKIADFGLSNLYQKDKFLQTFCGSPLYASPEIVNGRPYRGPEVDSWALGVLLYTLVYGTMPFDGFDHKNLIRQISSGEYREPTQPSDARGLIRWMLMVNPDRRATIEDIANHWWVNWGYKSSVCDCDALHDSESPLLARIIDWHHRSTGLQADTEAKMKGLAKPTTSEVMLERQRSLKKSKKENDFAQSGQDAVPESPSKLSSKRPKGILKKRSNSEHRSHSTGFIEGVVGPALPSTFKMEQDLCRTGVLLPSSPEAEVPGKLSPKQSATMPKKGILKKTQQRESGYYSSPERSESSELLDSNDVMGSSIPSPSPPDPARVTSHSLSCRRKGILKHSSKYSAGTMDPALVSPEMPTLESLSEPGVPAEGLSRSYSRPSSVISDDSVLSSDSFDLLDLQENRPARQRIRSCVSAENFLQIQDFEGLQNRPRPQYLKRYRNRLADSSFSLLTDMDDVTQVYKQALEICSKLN", "assay": "Selectivity interaction (Upstate Kinase Profiler service (Millipore)) EUB0000056c NUAK1", "conditions": "at 1 µM"}, "[2]": {"target": "Casein kinase I isoform gamma-3 (Homo sapiens) (UniProt Q9Y6M4)", "sequence (Q9Y6M4 whole entry, looked up, canonical isoform)": "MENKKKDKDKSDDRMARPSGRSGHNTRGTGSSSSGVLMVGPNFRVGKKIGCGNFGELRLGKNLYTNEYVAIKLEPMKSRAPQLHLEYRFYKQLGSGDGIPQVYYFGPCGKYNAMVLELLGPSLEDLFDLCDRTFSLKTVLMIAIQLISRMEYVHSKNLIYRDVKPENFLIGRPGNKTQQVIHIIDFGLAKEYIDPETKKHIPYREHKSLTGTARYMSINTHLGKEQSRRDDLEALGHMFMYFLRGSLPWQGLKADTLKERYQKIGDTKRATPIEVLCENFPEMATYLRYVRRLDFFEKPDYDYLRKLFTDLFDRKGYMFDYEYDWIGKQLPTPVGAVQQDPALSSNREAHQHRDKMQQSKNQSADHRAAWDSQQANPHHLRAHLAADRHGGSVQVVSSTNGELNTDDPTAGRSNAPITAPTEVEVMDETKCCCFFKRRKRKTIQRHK", "assay": "Selectivity interaction (ProQinase) EUB0000171b CSNK1G3"}, "[3]": {"target": "Serine/threonine-protein kinase 26 (Homo sapiens, UniProt Q9P289)", "sequence (Q9P289 2-416 limits assumed)": "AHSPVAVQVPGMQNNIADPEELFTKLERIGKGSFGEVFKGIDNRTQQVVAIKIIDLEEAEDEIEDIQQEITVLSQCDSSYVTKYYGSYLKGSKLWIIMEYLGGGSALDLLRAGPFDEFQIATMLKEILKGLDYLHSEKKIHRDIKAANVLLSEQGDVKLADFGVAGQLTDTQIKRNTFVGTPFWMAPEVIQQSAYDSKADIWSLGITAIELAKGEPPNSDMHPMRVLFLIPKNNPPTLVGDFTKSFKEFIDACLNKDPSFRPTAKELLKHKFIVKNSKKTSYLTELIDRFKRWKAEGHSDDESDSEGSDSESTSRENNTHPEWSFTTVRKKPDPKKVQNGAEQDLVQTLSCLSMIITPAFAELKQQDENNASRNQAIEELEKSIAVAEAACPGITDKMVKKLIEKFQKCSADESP", "assay": "Selectivity interaction (Kinase panel (KiNativ target engagement assay in Jurkat cells)) EUB0001635a STK26", "format": "cell-based", "conditions": "Selectivity number of off-targets 0.0, Selectivity number of targets 233.0, Source Knowledge https://www.sciencedirect.com/science/article/pii/S2451945619300674?via%3Dihub, at 1 µM"}, "[4]": {"target": "5'-AMP-activated protein kinase catalytic subunit alpha-2 (Homo sapiens) (UniProt P54646)", "sequence (P54646 whole entry, looked up)": "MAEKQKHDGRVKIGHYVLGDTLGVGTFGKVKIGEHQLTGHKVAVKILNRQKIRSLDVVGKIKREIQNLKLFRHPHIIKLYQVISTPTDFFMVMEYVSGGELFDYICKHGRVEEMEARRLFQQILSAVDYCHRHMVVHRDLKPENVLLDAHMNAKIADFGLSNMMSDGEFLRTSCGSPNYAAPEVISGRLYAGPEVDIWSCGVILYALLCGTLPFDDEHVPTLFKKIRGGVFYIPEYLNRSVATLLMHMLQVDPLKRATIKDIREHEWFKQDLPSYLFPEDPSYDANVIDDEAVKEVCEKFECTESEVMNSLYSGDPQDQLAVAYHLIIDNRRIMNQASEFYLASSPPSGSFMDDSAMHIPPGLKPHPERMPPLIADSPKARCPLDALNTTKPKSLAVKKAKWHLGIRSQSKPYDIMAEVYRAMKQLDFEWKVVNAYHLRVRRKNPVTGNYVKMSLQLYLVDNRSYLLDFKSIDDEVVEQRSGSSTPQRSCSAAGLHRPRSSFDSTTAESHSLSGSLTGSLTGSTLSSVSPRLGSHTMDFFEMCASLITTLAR", "assay": "Selectivity interaction (KinomeScan (DiscoverX)) EUB0000666a PRKAA2", "conditions": "at 10 µM"}, "[5]": {"target": "Tyrosine-protein kinase ABL1 (Homo sapiens, UniProt P00519)", "assay": "Selectivity interaction (KinomeScan (DiscoverX)) EUB0001868a ABL1", "conditions": "at 1 µM"}, "[6]": {"target": "Cell division cycle 7-related protein kinase (Homo sapiens, UniProt O00311)", "sequence (O00311 whole entry)": "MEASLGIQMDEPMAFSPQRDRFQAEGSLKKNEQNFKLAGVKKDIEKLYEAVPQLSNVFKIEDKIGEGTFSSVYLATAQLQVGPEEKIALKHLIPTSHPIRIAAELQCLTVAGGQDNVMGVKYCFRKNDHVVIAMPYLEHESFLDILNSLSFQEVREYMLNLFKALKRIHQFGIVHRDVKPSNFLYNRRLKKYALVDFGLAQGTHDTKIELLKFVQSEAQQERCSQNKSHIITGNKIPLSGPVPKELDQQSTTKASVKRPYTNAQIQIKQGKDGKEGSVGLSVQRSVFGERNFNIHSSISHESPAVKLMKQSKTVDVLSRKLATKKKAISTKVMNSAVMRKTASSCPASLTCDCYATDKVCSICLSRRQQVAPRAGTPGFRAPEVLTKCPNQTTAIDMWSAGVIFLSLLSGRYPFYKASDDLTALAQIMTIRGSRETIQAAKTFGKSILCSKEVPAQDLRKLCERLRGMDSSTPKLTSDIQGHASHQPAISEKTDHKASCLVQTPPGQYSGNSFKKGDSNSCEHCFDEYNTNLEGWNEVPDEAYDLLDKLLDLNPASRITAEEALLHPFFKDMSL", "assay": "Selectivity interaction (Kinase panel (Enzyme activity assay)) EUB0000612a CDC7"}, "[7]": {"target": "Dual specificity tyrosine-phosphorylation-regulated kinase 1A (Homo sapiens, UniProt Q13627)", "assay": "Selectivity interaction (KinomeScan (DiscoverX)) EUB0000607a DYRK1A", "conditions": "at 10 µM"}, "[8]": {"target": "T2, Ephrin type-B receptor 4 (Homo sapiens) (UniProt P54760)", "T2 sequence (whole entry)": "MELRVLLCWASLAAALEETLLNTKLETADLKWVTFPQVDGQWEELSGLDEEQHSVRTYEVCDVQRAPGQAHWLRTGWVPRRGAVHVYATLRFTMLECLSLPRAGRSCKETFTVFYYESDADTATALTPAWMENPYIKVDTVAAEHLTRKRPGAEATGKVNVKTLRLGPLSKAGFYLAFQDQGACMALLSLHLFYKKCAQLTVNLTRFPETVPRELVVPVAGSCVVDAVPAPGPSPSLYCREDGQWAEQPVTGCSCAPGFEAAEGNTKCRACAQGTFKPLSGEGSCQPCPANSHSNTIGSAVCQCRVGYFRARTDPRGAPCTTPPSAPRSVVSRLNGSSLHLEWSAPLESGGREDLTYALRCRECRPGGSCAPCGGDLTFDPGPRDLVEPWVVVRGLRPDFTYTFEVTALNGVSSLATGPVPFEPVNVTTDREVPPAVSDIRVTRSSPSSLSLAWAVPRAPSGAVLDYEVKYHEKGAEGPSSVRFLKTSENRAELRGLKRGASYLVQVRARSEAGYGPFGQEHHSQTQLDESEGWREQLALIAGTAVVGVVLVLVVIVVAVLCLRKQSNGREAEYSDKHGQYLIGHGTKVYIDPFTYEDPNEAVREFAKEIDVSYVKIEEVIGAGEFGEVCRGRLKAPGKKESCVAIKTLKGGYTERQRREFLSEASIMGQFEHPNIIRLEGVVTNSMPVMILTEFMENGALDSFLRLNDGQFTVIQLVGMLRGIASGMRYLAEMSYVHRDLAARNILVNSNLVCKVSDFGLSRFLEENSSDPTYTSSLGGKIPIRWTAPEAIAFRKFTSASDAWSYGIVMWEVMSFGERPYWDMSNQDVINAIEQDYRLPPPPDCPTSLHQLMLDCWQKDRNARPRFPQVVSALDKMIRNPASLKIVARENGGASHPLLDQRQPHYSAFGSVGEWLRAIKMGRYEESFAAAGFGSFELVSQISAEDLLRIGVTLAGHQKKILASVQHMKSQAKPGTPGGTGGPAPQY", "assay": "Selectivity interaction (KinomeScan (DiscoverX)) EUB0000045b EPHB4"}, "[9]": {"target": "Proto-oncogene tyrosine-protein kinase ROS (Homo sapiens) (UniProt P08922)", "sequence (P08922 whole entry)": "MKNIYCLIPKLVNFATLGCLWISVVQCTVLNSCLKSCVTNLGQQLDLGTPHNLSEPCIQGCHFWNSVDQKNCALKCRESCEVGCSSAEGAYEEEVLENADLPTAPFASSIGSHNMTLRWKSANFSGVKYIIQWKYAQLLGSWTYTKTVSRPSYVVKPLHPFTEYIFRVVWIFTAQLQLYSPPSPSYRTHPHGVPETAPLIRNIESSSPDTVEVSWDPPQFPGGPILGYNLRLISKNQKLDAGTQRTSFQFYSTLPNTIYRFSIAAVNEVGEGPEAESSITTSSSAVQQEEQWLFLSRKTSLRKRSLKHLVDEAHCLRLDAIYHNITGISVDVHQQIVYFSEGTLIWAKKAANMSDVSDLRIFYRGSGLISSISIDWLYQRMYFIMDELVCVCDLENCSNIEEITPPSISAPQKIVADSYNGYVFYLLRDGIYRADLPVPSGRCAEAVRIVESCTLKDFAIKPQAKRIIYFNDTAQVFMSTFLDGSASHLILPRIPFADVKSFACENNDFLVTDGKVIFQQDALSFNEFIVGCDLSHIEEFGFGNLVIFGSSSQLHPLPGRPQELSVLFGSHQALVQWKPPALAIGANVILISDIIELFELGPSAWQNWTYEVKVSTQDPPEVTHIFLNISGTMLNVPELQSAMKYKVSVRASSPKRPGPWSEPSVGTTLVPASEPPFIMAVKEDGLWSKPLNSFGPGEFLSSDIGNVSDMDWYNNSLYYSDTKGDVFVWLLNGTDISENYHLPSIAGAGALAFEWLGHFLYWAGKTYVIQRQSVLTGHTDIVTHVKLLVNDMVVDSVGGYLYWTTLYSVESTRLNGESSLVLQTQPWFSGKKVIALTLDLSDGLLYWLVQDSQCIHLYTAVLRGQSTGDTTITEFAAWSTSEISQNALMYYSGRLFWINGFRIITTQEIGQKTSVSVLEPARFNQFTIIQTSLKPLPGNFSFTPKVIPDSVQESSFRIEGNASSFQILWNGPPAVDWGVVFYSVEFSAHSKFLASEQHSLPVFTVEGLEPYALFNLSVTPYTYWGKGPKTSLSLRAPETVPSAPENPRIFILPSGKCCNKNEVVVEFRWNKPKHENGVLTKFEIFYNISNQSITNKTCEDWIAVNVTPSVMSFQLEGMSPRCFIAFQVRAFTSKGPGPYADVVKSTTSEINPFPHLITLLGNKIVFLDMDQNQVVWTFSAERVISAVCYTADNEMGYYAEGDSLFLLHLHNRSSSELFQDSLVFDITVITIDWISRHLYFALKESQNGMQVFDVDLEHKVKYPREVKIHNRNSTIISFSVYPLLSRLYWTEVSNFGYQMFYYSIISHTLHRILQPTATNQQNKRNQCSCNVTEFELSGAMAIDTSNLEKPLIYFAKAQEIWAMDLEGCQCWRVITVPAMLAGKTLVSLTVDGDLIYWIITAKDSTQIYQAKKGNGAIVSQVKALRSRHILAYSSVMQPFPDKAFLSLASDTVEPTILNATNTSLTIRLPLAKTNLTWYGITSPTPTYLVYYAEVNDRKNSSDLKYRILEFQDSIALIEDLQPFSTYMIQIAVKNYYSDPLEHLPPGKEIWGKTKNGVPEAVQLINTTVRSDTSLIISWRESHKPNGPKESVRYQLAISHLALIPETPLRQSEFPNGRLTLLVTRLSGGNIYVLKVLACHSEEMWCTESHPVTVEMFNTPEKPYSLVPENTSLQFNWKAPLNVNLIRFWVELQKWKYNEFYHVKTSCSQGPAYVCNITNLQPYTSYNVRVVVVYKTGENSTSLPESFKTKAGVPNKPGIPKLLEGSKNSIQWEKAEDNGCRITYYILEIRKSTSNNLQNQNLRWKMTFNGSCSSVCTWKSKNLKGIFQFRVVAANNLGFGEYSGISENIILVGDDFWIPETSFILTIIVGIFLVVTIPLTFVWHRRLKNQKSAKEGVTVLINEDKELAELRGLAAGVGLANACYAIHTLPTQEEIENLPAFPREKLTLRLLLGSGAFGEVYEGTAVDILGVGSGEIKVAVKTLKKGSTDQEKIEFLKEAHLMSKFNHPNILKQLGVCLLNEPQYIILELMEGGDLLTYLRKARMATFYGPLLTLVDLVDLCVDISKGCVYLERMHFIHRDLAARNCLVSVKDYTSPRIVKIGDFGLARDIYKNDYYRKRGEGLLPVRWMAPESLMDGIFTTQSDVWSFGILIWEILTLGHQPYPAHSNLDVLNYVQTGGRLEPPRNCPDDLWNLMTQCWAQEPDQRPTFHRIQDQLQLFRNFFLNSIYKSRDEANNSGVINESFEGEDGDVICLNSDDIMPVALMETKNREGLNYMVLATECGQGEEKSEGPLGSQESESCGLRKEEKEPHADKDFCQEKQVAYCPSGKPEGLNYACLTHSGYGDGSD", "assay": "Selectivity interaction (KinomeScan (DiscoverX)) EUB0000045b ROS1"}}, "data": [{"smiles": "Cc1ccc(-c2ccc3c(ccc4sc5c(c43)NC[C@@H](C)NC5=O)n2)cn1", "values": [{"measurement": "% of inhibition", "setting": "[1]", "result": 35, "unit": "%"}]}, {"smiles": "C=CC(=O)Nc1cccc(C(=O)Nc2ccc(Nc3cc(-c4[nH]c(SC)nc4C)ccn3)cc2)c1", "values": [{"measurement": "% of control", "setting": "[2]; at 1 µM", "result": 38, "unit": "%"}, {"measurement": "% of control", "setting": "[2]; at 5 µM", "result": 12, "unit": "%"}]}, {"smiles": "C=CC(=O)Nc1ccc(C(=O)Nc2[nH]nc3c2CN(C(=O)N[C@H](CN(C)C)c2ccccc2)C3(C)C)cc1", "values": [{"measurement": "% of engagement", "setting": "[3]", "result": 26, "unit": "%"}]}, {"smiles": "O=C(NOC[C@H](O)CO)c1ccc(F)c(F)c1Nc1ccc(I)cc1F", "values": [{"measurement": "% of control", "setting": "[4]", "result": 97, "unit": "%"}]}, {"smiles": "Cc1cc(-c2ccnc(Nc3cnn(C)c3)n2)ccc1CNC(=O)N1CC(OC(C)C)C1", "values": [{"measurement": "% of control", "setting": "[5]", "result": 21, "unit": "%"}]}, {"smiles": "CCc1cccc(CC)c1NC(=O)c1nn(C)c2c1CCc1cnc(Nc3ccc(C(=O)NC4CCN(C)CC4)cc3OC(F)(F)F)nc1-2", "values": [{"measurement": "IC50", "setting": "[6]", "result": "> 10", "unit": "µM"}]}, {"smiles": "CNC(=O)Nc1ccc(-c2nc(N3CC4CCC(C3)O4)c3cnn(C4CCC5(CC4)OCCO5)c3n2)cc1", "values": [{"measurement": "% of control", "setting": "[7]", "result": 100, "unit": "%"}]}, {"smiles": "C=CC(=O)Nc1cc(-n2c(=O)ccc3cnc4ccc(-c5ccc(NS(C)(=O)=O)cc5)cc4c32)ccc1C", "values": [{"measurement": "% of control", "setting": "[8]; at 1 µM", "result": 100, "unit": "%"}, {"measurement": "% of control", "setting": "[8]; at 10 µM", "result": 100, "unit": "%"}, {"measurement": "% of control", "setting": "[9]; at 1 µM", "result": 81, "unit": "%"}, {"measurement": "% of control", "setting": "[9]; at 10 µM", "result": 83, "unit": "%"}]}]}
